Results: US9663789B2, “PME-1 as a biomarker to predict and diagnose endometrial and breast cancer and gene silencing of PME-1 to inhibit epithelial to mesenchymal transition” (MEDICAL DIAGNOSTIC LABORATORIES, LLC, priority 2013, dated 2017)

How the values were obtained:
Format in all cases: cell-based, human
PP2A = PP2A phosphatase assay on RL95-2 whole cell lysates; conditions: RL95-2 cells, vs control (non-targeting)
Source text: Because PME-1 is a known inhibitor of PP2A, we confirmed in this study that depletion of PME-1 by siRNA led to an increase in PP2A activity in cells. To do so, we treated RL95-2 cells with either non-targeting siRNA (Control) or siRNA targeted against PPME1 (e.g., SEQ ID NO: 5 and SEQ ID NO: 6). PP2A activity was monitored using a phosphatase assay (R&D Systems Duo IC Set phosphatase assay kit). In the phosphatase assay, we used […] of whole cell extract and followed the manufacturer's recommendations.
Whole cell lysates were used with the DuoSet IC PP2A Phosphatase Assay Kit (R&D Systems). Procedure was carried out as per kit instructions with 500 μg protein and the absorbance was measured at 620 nm. The assay was repeated twice with similar results.

RL95-2 cells [1] = test: Foci formation assay, RL95-2 cells; conditions: RL95-2 cells expressing shRNA, compared to control cells
Description: A foci forming assay was used to monitor cell growth. Equal amounts of tumor cells were plated and they were allowed to grow for a determined period of time (see Materials and Methods section for details). The foci that were formed were then stained with the crystal violet dye. Cells were washed 3 times with PBS prior to visualization. Numbers of foci were counted and results were averaged among different experiments.
To determine if the loss of active PME-1 accounted for the observed decrease in foci formation, we first treated RL95-2 cells with siRNA against the 3′-UTR of PPME1 (SEQ ID NO: 5 and SEQ ID NO: 6) to decrease endogenous levels of PME-1. […] The S156A PME-1 mutant is not capable of de methylaing its target, PP2A.
1,000 cells were plated in a six well tissue culture dish in selection media (to include 5 μg/ml puromycin) (InvivoGen). Cells were allowed to adhere and grow in a 5% CO2, 37° C. incubator for 10 to 14 days. Media was replaced every fourth day. Cells were stained with 1% crystal violet (Sigma Aldrich) for five minutes and rinsed with PBS. Colonies were counted and data is presented as the percentage of change compared to the control. All Experiments were repeated at least three times.

RL95-2 cells [2] = test: Immunofluorescence of mitotic cells (phosphorylated histone H3 Ser10); conditions: RL95-2, compared to control cells
Description: Endometrial cancer cells were stained for phosphorylated histone H3 on serine 10, a marker of mitotic cells, followed by counterstaining with DAPI (FIG. 12) to identify all cells.
For analysis of patient samples, tissues were blocked for 2 hours with 10% FBS in TBST for at RT, incubated with each primary antibody (together) overnight at 4° C., washed three times for 15 min in TBST, incubated with each secondary fluorescent antibody (together) for 1 hr at RT, washed again as above, stained with DAPI and mounted with cover-slips using vectashield mounting media (Vector Labs). Primary antibodies used were for PME-1 (Santa Cruz), E-cadherin (Millipore), and vimentin (Genscript). 1×10^3RL95-2 cells were plated on a chamber slide and were incubated overnight at 37° C. Slides were fixed with 4% paraformaldehyde (PFA) on ice for two hours. The cells were incubated with the primary antibody to Histone 3 (pH3) phosphorylated at Ser10 (1:200, Cell Signaling Technologies) overnight and developed with the secondary anti-rabbit Alexa-Fluor 555 antibody (Cell Signaling Technologies). DAPI was used as a nuclear counter-stain (Sigma Aldrich). Images were taken with the Nikon Eclipse TE2000 at 20×.

DcR2 = test: Senescence assay: Western blot for DcR2 in RL95-2 cells; conditions: RL95-2 cell lysates
Description: We next analyzed cell lysates taken from RL95-2 cells that expressed either empty vector (Control), overexpressed PME-1 (+PME-1) or expressed shRNA against PME-1 (−PME-1) for DcR2 protein.
(§1) 15 μg of protein was used for western analysis. PME-1 antibody (Santa Cruz) and COXIV (Cell Signaling Technologies) were used for detection of proteins and the blots were developed using chemiluminescence (Pierce ECL Western Blotting Substrate—Thermo Scientific) on the GE ImageQuant LAS 4000. For analysis of Akt, ERK, and β-catenin signaling in tissue culture, western analyses were completed as follows. RL95-2 cells stably infected with lentivirus expressing constructs were selected with puromycin (Invivogen). The cells were incubated with either 50 μM Akt inhibitor (LY 294002, Cell Signaling Technologies) or 40 μM ERK inhibitor (V0126, Cell Signaling Technologies) for 1-2 hours at 37° C. 1.5× Laemelli buffer (0.5 M Tris pH6.8, […], 10% sodium dodecyl sulfate, 100 mM EDTA) was used to prepare cell lysates. 20 μg of protein was used for western analysis. Primary antibodies used were: P-Akt (Ser473), P-Akt (Thr308), pan-Akt, P-ERK (Thr202/204), total ERK (Cell Signaling Technologies), PME-1 (Santa Cruz), phospho-β-catenin (Ser45, Cell Signaling Technologies), phospho-β-catenin (Ser33/37/Thr41, Cell Signaling Technologies), β-catenin (Abcam), DcR2 (Abcam), and GAPDH (Abcam). […]

Akt = test: Western analysis of phospho-Akt in RL95-2 cells; conditions: RL95-2, PME-1 knocked down
Description: We observed a similar trend for the Akt signaling pathway. There was an increase in phosphorylation of Akt on threonine 308 (T308) when PME-1 was over-expressed compared to control. […] PME-1 over-expression specifically increases the phosphorylation of Akt on T308, but not serine 473 (S473).
as §1, with “analysis.” for “analysis. Primary antibodies used were: P-Akt (Ser473), P-Akt (Thr308), pan-Akt, P-ERK (Thr202/204), total ERK (Cell Signaling Technologies), PME-1 (Santa Cruz), phospho-β-catenin (Ser45, Cell Signaling Technologies), phospho-β-catenin (Ser33/37/Thr41, Cell Signaling Technologies), β-catenin (Abcam), DcR2 (Abcam), and GAPDH (Abcam).”

β-catenin = test: Western analysis of β-catenin in RL95-2 cells
Source text: We performed Western blot analysis in RL95-2 cells that were expressing empty vector (Control), over-expressing PME-1 (+PME-1) or expressing shRNA against PME-1 (−PME-1) (SEQ ID NO: 2) to examine the protein stability of β-catenin (FIG. 19A). We observed a decrease in total β-catenin protein in cells that were over-expressing PME-1. This observation is correlated with the predicted ubiquitylation of β-catenin and its degradation.
In another series of study, we performed a similar assay in which cells were treated with 10 μM MG-132 prior to protein extraction. MG-132 is a proteasome inhibitor and therefore allows for the accumulation of phosphorylated β-catenin, which is normally quickly degraded, to be detected by western analysis.
15 μg of protein was used for western analysis. PME-1 antibody (Santa Cruz) and COXIV (Cell Signaling Technologies) were used for detection of proteins and the blots were developed using chemiluminescence (Pierce ECL Western Blotting Substrate—Thermo Scientific) on the GE ImageQuant LAS 4000. For analysis of Akt, ERK, and β-catenin signaling in tissue culture, western analyses were completed as follows. RL95-2 cells stably infected with lentivirus expressing constructs were selected with puromycin (Invivogen). […]

“shRNA (SEQ ID NO: 2): lentiviral shRNA against PPME1, target sequence SEQ ID NO: 2 GCAGCGATTATTAGTAGAGTT, bp 289-309; hairpin SEQ ID NO: 8 (CCGGGCAGCGATTATTAGTAGAGTTCTCGAGAACTCTACTAATAATCGCTGCTTTTT; listed as Homo sapiens)” was tested, and the “increase in PP2A phosphatase activity” value (PP2A) was 30 fold, the decrease in foci (RL95-2 cells [1]) was 75% and the “decreased proliferation (phospho-histone H3 positive cells)” value (RL95-2 cells [2]) was roughly 30%. The “senescent marker protein DcR2 (Western)” value (DcR2) was “increase in the senescent marker protein, DcR2”, the “phosphorylation of Akt (Western)” value (Akt) was “decrease in phosphorylation of Akt” and the “total β-catenin protein (Western)” value (β-catenin; RL95-2, absence of MG-132) was “stabilization of total β-catenin”. The “phosphorylated β-catenin (Western)” value (β-catenin; RL95-2, treated with 10 μM MG-132, compared to control cells) was “did not lead to an increase in phosphorylated β-catenin”.
